The record followed here is US7115741B2, “4-thieno[2,3-D]pyrimidin-4-YL piperazine compounds” (priority 2001, dated 2006).

The test system of the test is platelet ADP receptors. As to the kind of experiment: ARB binding assay (platelet ADP receptor binding, [3H]2-MeS-ADP). Also on record: species or system human. As to conditions: relative activities of selected compounds in the ARB binding assay. The method, then:
Utilizing the second assay the potency of inhibition of such compounds with respect to [^3H]2-MeS-ADP binding to whole platelets is determined. [^3H]2-MeS-ADP binding experiments are routinely performed with outdated human platelets collected by standard procedures at hospital blood banks. Apyrase-washed outdated platelets are prepared as follows (all steps at room temperature, if not indicated otherwise):
Outdated platelet suspensions are diluted with 1 volume of CGS and platelets pelleted by centrifugation at 1900×g for 45 minutes. Platelet pellets are resuspended at 3–6×10^9 platelets/ml in CGS containing 1 U/ml apyrase (grade V, Sigma, St. Louis, Mo.) and incubated for 15 minutes at 37° C. After centrifugation at 730×g for 20 minutes, pellets are resuspended in Hepes-Tyrode's buffer containing 0.1% BSA (Sigma, St. Louis, Mo.) at a concentration of 6.66×10^8 platelets/ml. Binding experiments are performed after >45 minutes resting of the platelets.
Alternatively, binding experiments are performed with fresh human platelets prepared as described in I.(Inhibition of ADP-Mediated Platelet Aggregation in vitro), except that platelets are resuspended in Hepes-Tyrode's buffer containing 0.1% BSA (Sigma, St. Louis, Mo.) at a concentration of 6.66×10^8 platelets/ml. Very similar results are obtained with fresh and outdated platelets.
A platelet ADP receptor binding assay using the tritiated potent agonist ligand [^3H]2-MeS-ADP (Jantzen, H. M. et al. (1999) Thromb. Hemost. 81:111–117) has been adapted to the 96-well microtiter format. In an assay volume of 0.2 ml Hepes-Tyrode's buffer with 0.1% BSA and 0.6% DMSO, 1×10^8 apyrase-washed platelets are preincubated in 96-well flat bottom microtiter plates for 5 minutes with serial dilutions of test compounds before addition of 1 nM [^3H]2-MeS-ADP ([^3H]2-methylthioadenosine-5′-diphosphate, ammonium salt; specific activity 48–49 Ci/mmole, obtained by custom synthesis from Amersham Life Science, Inc., Arlington Heights, Ill., or NEN Life Science Products, Boston, Mass.). Total binding is determined in the absence of test compounds. Samples for nonspecific binding may contain 10^−5 M unlabelled 2-MeS-ADP (RBI, Natick, Mass.). After incubation for 15 minutes at room temperature, unbound radioligand is separated by rapid filtration and two washes with cold (4–8° C.) Binding Wash Buffer (10 mM Hepes pH 7.4, 138 mM NaCl) using a 96-well cell harvester (Minidisc 96, Skatron Instruments, Sterling, Va.) and 8×12 GF/C glassfiber filtermats (Printed Filtermat A, for 1450 Microbeta, Wallac Inc., Gaithersburg, Md.). The platelet-bound radioactivity on the filtermats is determined in a scintillation counter (Microbeta 1450, Wallac Inc., Gaithersburg, Md.). Specific binding is determined by subtraction of non-specific binding from total binding, and specific binding in the presence of test compounds is expressed as % of specific binding in the absence of test compounds dilutions.

Each structure is given as a SMILES string.

`CCc1cc2c(N3CCN(C(=O)Cc4ccncc4)CC3)ncnc2s1` [Example 67, 1-[4-(6-ethylthiopheno[3,2-e]pyrimidin-4-yl)piperazinyl]-2-(4-pyridyl)ethan-1-one]: the “Relative Activity” value is “++ (10–20 micromolar)”.
With `CCc1cc2c(N3CCN(C(=O)CCCCC4CCCCC4)CC3)ncnc2s1` [Example 311, 5-Cyclohexyl-1-[4-(6-ethyl-thieno[2,3-d]pyrimidin-4-yl)-piperazin-1-yl]-pentan-1-one], the “Relative Activity” value is “+ (>20 micromolar)”.
With `CCc1cc2c(N3CCN(C(=O)[C@@H]4CCC[C@H](Cn5nnc6ccccc65)C4)CC3)ncnc2s1` [Example 279, (3-Benzotriazol-1-ylmethyl-cyclohexyl)-[4-(6-ethyl-thieno[2,3-d]pyrimidin-4-yl)-piperazin-1-yl]-methanone], the “Relative Activity” value was “+++ (<10 micromolar)”.
Consider `CCc1cc2c(N3CCN(C(=O)C(c4ccccc4)N4CCNCC4)CC3)ncnc2s1` (stereo not drawn) [Example 432, 1-[4-(6-Ethyl-thieno[2,3-d]pyrimidin-4-yl)-piperazin-1-yl]-2-phenyl-2-piperazin-1-yl-ethanone], for which the “Relative Activity” value is on record as “+ (>20 micromolar)”.
With `CCc1cc2c(N3CCN(C(=O)CCCC(=O)O)CC3)ncnc2s1` [Example 390, 5-[4-(6-Ethyl-thieno[2,3-d]pyrimidin-4-yl)-piperazin-1-yl]-5-oxo-pentanoic acid], the “Relative Activity” value is given as “+ (>20 micromolar)”.
In the case of `CCc1cc2c(N3CCN(C(=O)Cc4ccccc4)CC3)nc(C)nc2s1` [Example 153, 1-[4-(6-ethyl-2-methylthiopheno[3,2-e]pyrimidin-4-yl)piperazinyl]-2-phenylethan-1-one] it was “+++ (<10 micromolar)”; in that of `CCc1cc2c(N3CCN(C(=O)CCCNc4ncccn4)CC3)ncnc2s1` [Example 430, 1-[4-(6-Ethyl-thieno[2,3-d]pyrimidin-4-yl)-piperazin-1-yl]-4-(pyrimidin-2-ylamino)-butan-1-one], “+ (>20 micromolar)”; in that of `O=C(Cc1ccccc1)N1CCN(c2ncnc3sc(Br)cc23)CC1` [Example 125, 1-[4-(6-bromothiopheno[3,2-e]pyrimidin-4-yl)piperazinyl]-2-phenylethan-1-one], “+++ (<10 micromolar)”.
The entry for `CCc1cc2c(N3CCN(C(=O)Cc4ccccc4)CC3c3ccccc3)ncnc2s1` (stereo not drawn) [Example 206, 1-[4-(6-ethylthiopheno[3,2-e]pyrimidin-4-yl)-3-phenylpiperazinyl]-2-phenylethan-1-one] is “+ (>20 micromolar)”; for `CCc1cc2c(N3CCN(C(=O)CCCCOc4ccccc4)CC3)ncnc2s1` [Example 305, 1-[4-(6-Ethyl-thieno[2,3-d]pyrimidin-4-yl)-piperazin-1-yl]-5-phenoxy-pentan-1-one] it is “+++ (<10 micromolar)”.
Consider `CCc1cc2c(N3CCN(C(=O)CCCn4nnc5ccccc54)CC3)ncnc2s1` [Example 372, 4-Benzotriazol-1-yl-1-[4-(6-Ethyl-thieno[2,3-d]pyrimidin-4-yl)-piperazin-1-yl]-butan-1-one], for which the “Relative Activity” value was “++ (10–20 micromolar)”.
For the molecule `CCc1cc2c(N3CCN(C(=O)CCCCC#N)CC3)ncnc2s1` [Example 395, 6-[4-(6-Ethyl-thieno[2,3-d]pyrimidin-4-yl)-piperazin-1-yl]-6-oxo-hexanenitrile], the “Relative Activity” value is recorded as “+ (>20 micromolar)”.
